Assay results reported in ChEMBL document CHEMBL1201862, “PubChem BioAssay data set” (2004).
The source made the active and inactive calls.

Key:
[1] = biological target: Luciferin 4-monooxygenase (Photinus pyralis, UniProt P08659); experiment: inhibition of purified Photinus pyralis luciferase – biochemical, luminescence, dose response (AID 1891)
[2] = test system: HeLa; experiment: ATP-based viability loss in HeLa cells – cell-based, CellTiter-Glo luminescence, cherry-pick samples, cytotoxicity control for MITF activator project, dose response (AID 540259); format: functional; settings: Homo sapiens
[3] = Luminescence Cell-Based Dose Confirmation HTS to Identify Inhibitors of Platelet Dense Granule Release. [Related pubchem assays: 1663 (Primary HTS), 1678 (Summary of Project)]; format: functional
[4] = biological target: T1, Rac GTPase-activating protein 1 (Homo sapiens, UniProt Q9H0H5); experiment: blockers of MgcRacGAP-driven Rac1 GTP hydrolysis – biochemical, ADP Hunter fluorescence, primary and confirmatory, confirmation (AID 624330); format: functional
T1 sequence (Q9H0H5 whole entry): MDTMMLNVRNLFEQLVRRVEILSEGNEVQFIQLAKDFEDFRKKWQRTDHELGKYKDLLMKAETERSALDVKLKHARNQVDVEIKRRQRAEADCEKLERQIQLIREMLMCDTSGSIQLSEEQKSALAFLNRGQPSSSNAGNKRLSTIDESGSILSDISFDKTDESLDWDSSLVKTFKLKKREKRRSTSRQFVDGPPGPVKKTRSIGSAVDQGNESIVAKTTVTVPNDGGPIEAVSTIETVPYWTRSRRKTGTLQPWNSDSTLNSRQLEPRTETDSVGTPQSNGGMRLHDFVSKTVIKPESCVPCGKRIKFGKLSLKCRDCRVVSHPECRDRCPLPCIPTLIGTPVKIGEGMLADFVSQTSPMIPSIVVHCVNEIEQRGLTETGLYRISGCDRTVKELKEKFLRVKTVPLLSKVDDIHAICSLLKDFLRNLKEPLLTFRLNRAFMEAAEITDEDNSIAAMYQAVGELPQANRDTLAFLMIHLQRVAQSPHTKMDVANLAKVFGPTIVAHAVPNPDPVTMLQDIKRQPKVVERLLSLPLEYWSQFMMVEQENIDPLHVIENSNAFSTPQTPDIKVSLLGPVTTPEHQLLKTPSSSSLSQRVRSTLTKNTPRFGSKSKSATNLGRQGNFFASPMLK

[5] = biological target: Nonstructural protein 1 (Influenza A virus, UniProt Q194T2); format: functional, Influenza A virus (A/California/07/2009(H1N1))
Nonstructural protein 1, sequence (Q194T2 whole entry): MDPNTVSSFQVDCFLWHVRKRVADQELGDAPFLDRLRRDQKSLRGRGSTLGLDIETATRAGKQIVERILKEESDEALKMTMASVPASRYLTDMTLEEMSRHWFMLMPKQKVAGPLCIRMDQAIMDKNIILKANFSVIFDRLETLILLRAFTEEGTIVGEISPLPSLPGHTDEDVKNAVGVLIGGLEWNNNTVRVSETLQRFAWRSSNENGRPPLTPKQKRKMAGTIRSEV

[6] = cells; format: functional
[7] = biological target: T2, Calpain-2 catalytic subunit (Sus scrofa, UniProt P43367); experiment: m-calpain protease blockers, concentration series – biochemical, fluorogenic peptide substrate, dose response (AID 1420); format: functional
T2 sequence (P43367 whole entry): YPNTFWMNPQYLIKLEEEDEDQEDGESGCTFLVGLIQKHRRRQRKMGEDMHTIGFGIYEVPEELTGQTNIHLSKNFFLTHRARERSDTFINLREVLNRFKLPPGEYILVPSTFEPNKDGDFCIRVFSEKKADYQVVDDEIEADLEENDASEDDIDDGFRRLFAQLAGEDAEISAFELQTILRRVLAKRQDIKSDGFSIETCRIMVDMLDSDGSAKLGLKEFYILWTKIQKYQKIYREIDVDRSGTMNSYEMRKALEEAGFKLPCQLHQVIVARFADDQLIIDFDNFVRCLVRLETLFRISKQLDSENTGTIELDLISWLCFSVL

[8] = biological target: Cytochrome P450 2C19 (Homo sapiens, UniProt P33261); experiment: Cytochrome panel assay with activity outcomes. Panel member name: p450-cyp2c19 Compounds with AC50 equal or less than 10 uM are considered active; format: functional; settings: read-out: AC50
Cytochrome P450 2C19, sequence (P33261 whole entry): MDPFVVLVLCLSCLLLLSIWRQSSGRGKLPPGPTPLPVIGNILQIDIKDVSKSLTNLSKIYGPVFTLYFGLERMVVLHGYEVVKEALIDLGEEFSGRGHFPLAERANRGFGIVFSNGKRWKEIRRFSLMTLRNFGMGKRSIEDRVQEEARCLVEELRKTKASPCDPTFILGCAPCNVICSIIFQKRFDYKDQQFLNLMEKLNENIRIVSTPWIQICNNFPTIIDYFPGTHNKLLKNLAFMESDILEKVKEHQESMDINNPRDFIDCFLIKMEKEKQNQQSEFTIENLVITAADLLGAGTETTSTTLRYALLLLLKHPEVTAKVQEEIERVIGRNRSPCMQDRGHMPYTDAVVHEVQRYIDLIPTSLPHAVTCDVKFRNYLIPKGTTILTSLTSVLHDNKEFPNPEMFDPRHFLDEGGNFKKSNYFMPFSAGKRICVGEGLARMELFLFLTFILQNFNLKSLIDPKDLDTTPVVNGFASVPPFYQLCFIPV

[9] = biological target: Cytochrome P450 2C9 (Homo sapiens, UniProt P11712)
Cytochrome P450 2C9, sequence (P11712 whole entry): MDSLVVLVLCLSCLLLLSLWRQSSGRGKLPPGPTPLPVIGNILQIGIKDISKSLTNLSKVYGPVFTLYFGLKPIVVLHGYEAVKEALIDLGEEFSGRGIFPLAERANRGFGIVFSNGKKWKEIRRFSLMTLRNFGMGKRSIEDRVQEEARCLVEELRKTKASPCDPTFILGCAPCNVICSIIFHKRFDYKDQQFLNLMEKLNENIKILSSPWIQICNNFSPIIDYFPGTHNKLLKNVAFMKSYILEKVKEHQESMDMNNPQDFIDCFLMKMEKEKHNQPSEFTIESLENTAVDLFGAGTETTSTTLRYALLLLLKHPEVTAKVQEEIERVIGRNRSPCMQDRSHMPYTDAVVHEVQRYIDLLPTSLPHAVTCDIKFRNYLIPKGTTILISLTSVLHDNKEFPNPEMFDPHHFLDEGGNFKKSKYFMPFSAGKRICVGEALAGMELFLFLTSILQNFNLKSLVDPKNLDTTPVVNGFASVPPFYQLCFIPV

[10] = biological target: Cytochrome P450 2D6 (Homo sapiens, UniProt P10635);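 also: CYP2D6 member of a cytochrome P450 panel assay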
Cytochrome P450 2D6, sequence (P10635 whole entry): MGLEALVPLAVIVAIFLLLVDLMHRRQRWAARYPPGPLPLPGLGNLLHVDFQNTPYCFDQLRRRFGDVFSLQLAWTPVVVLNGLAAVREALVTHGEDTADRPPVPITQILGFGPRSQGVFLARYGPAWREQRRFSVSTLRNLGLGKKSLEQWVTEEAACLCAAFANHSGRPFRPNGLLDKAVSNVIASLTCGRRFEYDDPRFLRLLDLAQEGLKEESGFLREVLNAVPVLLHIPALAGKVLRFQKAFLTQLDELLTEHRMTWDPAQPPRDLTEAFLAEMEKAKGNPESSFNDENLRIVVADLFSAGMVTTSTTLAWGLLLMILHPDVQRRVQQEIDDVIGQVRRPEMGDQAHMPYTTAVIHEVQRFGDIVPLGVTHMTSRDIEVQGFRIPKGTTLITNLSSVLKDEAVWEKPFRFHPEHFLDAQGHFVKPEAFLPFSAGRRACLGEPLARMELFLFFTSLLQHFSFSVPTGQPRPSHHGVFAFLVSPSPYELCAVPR

[11] = biological target: T3, Cytochrome P450 1A2 (Homo sapiens, UniProt P05177);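 also: PubChem cytochrome P450 panel assay, CYP1A2 panel member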
T3 sequence (P05177 whole entry): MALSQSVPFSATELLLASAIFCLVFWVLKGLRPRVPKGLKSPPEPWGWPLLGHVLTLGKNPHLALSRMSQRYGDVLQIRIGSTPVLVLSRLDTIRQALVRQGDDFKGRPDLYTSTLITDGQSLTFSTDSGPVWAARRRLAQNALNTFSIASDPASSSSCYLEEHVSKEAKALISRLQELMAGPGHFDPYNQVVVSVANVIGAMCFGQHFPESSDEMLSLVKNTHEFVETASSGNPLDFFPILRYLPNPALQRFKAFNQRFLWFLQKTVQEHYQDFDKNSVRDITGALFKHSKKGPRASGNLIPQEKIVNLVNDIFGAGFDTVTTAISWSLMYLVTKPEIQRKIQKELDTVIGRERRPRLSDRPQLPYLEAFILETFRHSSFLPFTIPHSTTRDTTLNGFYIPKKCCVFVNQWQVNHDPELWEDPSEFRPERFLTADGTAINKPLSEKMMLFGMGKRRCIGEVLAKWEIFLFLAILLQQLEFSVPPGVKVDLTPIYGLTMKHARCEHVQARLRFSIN

[12] = Luminescence Cell-Based Dose Retest to Confirm Inhibitors of Cancer Stem Cells. [Related pubchem assays (depositor defined):AID2717, AID2721]; format: functional; settings: Homo sapiens
[13] = biological target: FAD-linked sulfhydryl oxidase ALR (Homo sapiens, UniProt P55789); experiment: ALR-catalysed DTT oxidation blockers – biochemical, H2O2 detection, luminescence, cherry-pick, dose response (AID 493248)
FAD-linked sulfhydryl oxidase ALR, sequence (P55789 whole entry): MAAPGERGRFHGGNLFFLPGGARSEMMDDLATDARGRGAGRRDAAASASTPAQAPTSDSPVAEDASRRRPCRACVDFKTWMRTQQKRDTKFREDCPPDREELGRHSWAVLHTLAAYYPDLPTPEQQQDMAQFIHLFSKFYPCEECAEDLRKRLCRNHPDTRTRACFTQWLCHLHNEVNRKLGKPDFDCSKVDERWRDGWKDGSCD

[14] = microbe, parasite or virus in culture; format: functional; settings: Mycobacterium tuberculosis
[15] = reduction of Shn3 3'UTR-driven luciferase in osteoblasts – cell-based, Clone20 osteoblasts, firefly luciferase, cherry-picked, dose response (AID 624132); format: functional;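 also: firefly luciferase luminescence from reporter carrying the Shn3 3'UTR in osteoblasts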
[16] = loss of viability in HepG2 cells – cell-based, CellTiter-Glo, cherry-picked, cytotoxicity control for Shn3 inhibitor project, dose response (AID 624134); format: functional
[17] = non-specific 3'UTR reporter inhibition in Clone20-Shn3RL – cell-based, Renilla luciferase, cherry-picked, counter-screen for Shn3 inhibitor project, dose response (AID 624133); format: functional
[18] = biological target: T4, Carboxy-terminal domain RNA polymerase II polypeptide A small phosphatase 1 (Homo sapiens, UniProt Q9GZU7); experiment: CTDSP1 inhibitors, concentration-response, biochemical, absorbance readout, ultra-high-throughput screen actives (AID 540297); format: functional
T4 sequence (Q9GZU7 whole entry): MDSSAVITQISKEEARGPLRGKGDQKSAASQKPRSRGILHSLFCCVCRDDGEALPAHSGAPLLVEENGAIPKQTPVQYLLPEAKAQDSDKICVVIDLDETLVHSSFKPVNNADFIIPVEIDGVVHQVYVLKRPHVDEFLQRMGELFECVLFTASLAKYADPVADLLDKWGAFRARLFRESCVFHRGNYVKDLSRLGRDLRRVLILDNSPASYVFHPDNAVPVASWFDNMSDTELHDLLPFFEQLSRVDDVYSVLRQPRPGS

[19] = biological target: Cytochrome P450 3A4 (Homo sapiens, UniProt P08684);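 also: CYP3A4 tested as one member of a cytochrome P450 panel screen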
Cytochrome P450 3A4, sequence (P08684 whole entry): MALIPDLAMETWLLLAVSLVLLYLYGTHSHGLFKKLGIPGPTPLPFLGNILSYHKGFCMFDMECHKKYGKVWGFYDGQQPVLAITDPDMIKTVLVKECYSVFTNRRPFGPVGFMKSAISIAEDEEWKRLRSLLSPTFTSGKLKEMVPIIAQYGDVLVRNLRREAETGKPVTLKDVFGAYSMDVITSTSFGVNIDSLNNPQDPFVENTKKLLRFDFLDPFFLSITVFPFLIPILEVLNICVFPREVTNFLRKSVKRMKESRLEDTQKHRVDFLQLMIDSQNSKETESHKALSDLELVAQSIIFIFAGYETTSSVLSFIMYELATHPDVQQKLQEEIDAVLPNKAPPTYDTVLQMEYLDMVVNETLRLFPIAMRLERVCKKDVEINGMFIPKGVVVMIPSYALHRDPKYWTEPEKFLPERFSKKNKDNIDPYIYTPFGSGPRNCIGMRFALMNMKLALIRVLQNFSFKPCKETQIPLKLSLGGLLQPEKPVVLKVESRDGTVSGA

[20] = test system: BJ; experiment: BJ-TERT fibroblast viability loss – cell-based, RAS-independent, luminescence, dose response (AID 1933); format: functional; settings: Homo sapiens
[21] = DRD fibroblast viability loss – cell-based, non-viral oncogenic, luminescence, dose response (AID 1934); format: functional; settings: Homo sapiens
[22] = test system: BJ; experiment: cells; format: functional, cell-based; settings: Homo sapiens
[23] = test system: BJ; experiment: BJ-TERT-LT-ST fibroblast viability loss – cell-based, RAS-independent, luminescence, dose response (AID 1935); format: functional; settings: Homo sapiens;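 also: BJ fibroblasts immortalized with TERT plus LT and ST oncogenes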
[24] = biological target: Genome polyprotein (dengue virus type 2, UniProt P29990); experiment: flavivirus cap methylation enzyme inhibition – biochemical, confirmation dose response, primary screen (AID 588689); format: functional
Genome polyprotein, sequence (P29990 2492-3391 limits assumed): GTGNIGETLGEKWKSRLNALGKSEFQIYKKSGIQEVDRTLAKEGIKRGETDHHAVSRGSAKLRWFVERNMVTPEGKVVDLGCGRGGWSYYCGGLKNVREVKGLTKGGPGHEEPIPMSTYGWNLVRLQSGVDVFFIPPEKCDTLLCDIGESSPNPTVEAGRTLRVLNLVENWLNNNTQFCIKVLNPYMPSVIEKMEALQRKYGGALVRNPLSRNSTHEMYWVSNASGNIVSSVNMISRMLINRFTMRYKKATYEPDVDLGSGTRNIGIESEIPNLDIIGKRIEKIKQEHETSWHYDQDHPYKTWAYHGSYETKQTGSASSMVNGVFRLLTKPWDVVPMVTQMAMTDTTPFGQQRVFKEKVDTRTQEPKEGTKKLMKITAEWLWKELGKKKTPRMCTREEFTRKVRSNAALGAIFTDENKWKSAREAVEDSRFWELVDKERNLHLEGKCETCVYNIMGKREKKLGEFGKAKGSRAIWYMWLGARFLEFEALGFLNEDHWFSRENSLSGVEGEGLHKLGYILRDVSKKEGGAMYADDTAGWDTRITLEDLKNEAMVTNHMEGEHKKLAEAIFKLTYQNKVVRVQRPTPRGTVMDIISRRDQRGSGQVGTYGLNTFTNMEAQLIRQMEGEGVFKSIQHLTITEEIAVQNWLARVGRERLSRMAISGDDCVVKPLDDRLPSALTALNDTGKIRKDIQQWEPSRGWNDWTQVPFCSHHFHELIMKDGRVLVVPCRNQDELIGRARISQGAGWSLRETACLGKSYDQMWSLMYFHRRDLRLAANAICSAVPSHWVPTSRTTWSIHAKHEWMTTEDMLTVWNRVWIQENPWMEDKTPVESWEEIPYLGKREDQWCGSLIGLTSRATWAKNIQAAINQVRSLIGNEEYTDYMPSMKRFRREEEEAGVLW

[25] = test system: H9c2; experiment: cells; format: functional, cell-based; settings: Rattus norvegicus, H9c2, Myocardium;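 also: confirmatory concentration-response retest of ultra-high-throughput screening hits for modulation of myocardial damage; cell death induced by hydrogen peroxide oxidative stress; compound pretreatment for 60 min then peroxide exposure for 2 h; potency is for protecting the cells against peroxide damage rather than for killing them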
[26] = biological target: Paired box protein Pax-8 (Homo sapiens, UniProt Q06710); experiment: PAX8 transcriptional activity inhibition in RMG-I – RMG-I cells, luciferase, cherry-pick, dose response (AID 687027); format: functional, cell-based;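 also: luciferase reporter driven by Pax8 target thyroperoxidase promoter measured by SteadyGlo luminescence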
Paired box protein Pax-8, sequence (Q06710 whole entry): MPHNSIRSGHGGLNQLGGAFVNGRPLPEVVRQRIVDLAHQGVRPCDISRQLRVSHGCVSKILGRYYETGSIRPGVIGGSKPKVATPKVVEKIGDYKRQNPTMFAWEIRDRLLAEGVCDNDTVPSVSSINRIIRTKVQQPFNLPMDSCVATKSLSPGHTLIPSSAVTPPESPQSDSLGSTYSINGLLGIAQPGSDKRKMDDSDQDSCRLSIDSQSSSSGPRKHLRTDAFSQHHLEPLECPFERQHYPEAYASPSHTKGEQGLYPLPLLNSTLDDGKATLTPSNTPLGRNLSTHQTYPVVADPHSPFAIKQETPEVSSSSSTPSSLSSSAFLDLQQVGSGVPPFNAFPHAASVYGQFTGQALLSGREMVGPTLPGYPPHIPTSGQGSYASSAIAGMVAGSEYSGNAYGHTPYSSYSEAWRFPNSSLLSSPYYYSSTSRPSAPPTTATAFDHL

[27] = Luminescence Cell-Based Dose Response HTS to Identify Inhibitors of 5'UTR Stem-Loop Driven Prion Protein mRNA Translation in H4 Neuroglioblastoma Cells. [Related pubchem assays: 1827 (Project Summary), 1813 (Primary HTS)]; format: functional
[28] = alpha-synuclein stem-loop luciferase translation blockers – H4 neuroglioma cells, luminescence, confirmation (AID 1988); format: functional, cell-based
[29] = luciferase reporter signal suppression in cells – H4 neuroglioma cells, luminescence, dose response (AID 1990); format: functional, cell-based
[30] = NIH3T3 cell viability loss – ATP luminescence, mouse fibroblasts, counter-screen, dose response (AID 2010); format: functional, cell-based;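 also: cells exposed to compound for about 90 hours before reading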
[31] = Trypanosoma cruzi growth suppression in host cells – NIH3T3 host cells, beta-gal luminescence, confirmation (AID 2044); format: functional, cell-based;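 also: intracellular parasites grown in NIH/3T3 mouse fibroblasts as host cells; luminescent beta-galactosidase reporter signal from transgenic T. cruzi replicating inside host cells; inhibitors lower the luminescence signal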

Luciferin 4-monooxygenase, sequence (P08659 whole entry): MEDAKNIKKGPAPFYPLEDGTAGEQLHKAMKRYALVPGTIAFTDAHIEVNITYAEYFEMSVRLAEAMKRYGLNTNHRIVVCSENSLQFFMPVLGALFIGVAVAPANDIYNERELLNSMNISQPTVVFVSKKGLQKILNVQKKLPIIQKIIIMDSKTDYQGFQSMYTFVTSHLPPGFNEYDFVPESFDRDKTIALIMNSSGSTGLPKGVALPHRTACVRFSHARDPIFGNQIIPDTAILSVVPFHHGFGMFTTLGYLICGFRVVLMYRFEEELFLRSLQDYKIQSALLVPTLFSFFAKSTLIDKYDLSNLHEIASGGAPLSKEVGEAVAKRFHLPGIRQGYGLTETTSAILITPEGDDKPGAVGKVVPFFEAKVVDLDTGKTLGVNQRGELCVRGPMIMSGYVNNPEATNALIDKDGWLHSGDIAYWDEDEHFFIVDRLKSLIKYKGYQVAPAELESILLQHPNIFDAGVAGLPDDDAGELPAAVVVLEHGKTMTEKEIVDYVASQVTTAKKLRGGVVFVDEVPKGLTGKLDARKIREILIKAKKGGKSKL

Oc1ccc(/C=N/Nc2cccc(Cl)n2)c(O)c1
EC50 [1]: 1.66 µM (active) | AC50 [2]: 316 µM (active) | EC50 [3]: 1.39 µM (active) | IC50 [4]: 29 µM (active)

COc1cccc(/C=N/N2C(=O)CSC2=S)c1O
IC50 [5]: 2.19 µM (active)

Cc1ccc(C(=O)Oc2cccc(-n3cnnn3)c2)cc1
IC50 [6]: 13.7 µM (active) | AC50 [2]: > 350 µM (inactive) | IC50 [7]: 10.5 µM (not active)

CC(=O)c1cccc(NC(=O)Cc2ccc3c(c2)CCCC3)c1
AC50 [8]: 3.16 µM (inconclusive) | AC50 [9]: inconclusive | AC50 [10]: 4.47 µM (inconclusive) | AC50 [11]: 25.1 µM (inconclusive)

Clc1ccc(N/N=C/c2cccnc2)cc1
AC50 [12]: 4.65 µM (active) | AC50 [13]: 0.426 µM (active) | AC50 [2]: 41.7 µM (active)

CC(C)(C)C(=O)N1CCN(c2ccc(NC(=O)c3ccc([N+](=O)[O-])o3)cc2)CC1
CC50 [14]: 2.96 µM (active) | AC50 [15]: 2.45 µM (active) | AC50 [16]: > 70 µM (inactive) | AC50 [17]: 7.74 µM (active)

COc1ccc(OCC(=O)NNC(=O)c2ccc(-c3ccccc3)cc2)cc1
AC50 [9]: inconclusive | IC50 [18]: 7.77 µM (active)

O=C(CN1C(=O)c2ccccc2C1=O)NCC(=O)OCC(=O)c1ccc(Br)cc1
AC50 [9]: inconclusive | AC50 [19]: 3.55 µM (inconclusive)

COc1cc(C(=O)c2cocc2C(=O)c2ccc3c(c2)OCO3)cc(OC)c1OC
EC50 [20]: 2.71 µM (active) | EC50 [21]: 1.45 µM (active) | EC50 [22]: 38.6 µM (inconclusive) | EC50 [23]: 2.57 µM (inconclusive)

COC(=O)C1=CN(c2cccc(C)c2)C=C(C(=O)OC)C1c1cc(OC)c(O)c([N+](=O)[O-])c1
IC50 [24]: 56.5 µM (active)

Cc1ccc(C(=O)c2cc3ccccc3o2)cc1[N+](=O)[O-]
EC50 [20]: > 150 µM (not active) | EC50 [21]: > 150 µM (not active) | EC50 [22]: > 150 µM (not active) | EC50 [23]: > 150 µM (inconclusive)

COc1cc(-c2cnc3c(NC=O)cc(-c4cccc(NC(C)=O)c4)cn23)cc(OC)c1OC
IC50 [25]: > 79 µM (inactive) | AC50 [26]: 2.88 µM (active)

CC(=O)N=C(N)Nc1nc(=O)c2ccccc2s1
AC50 [2]: 69.2 µM (active)

Cn1c(=O)c2cc(S(=O)(=O)NCCC(=O)NCc3ccccc3Cl)ccc2n(C)c1=O
AC50 [9]: inconclusive | AC50 [10]: 17.8 µM (inconclusive)

C[C@@H]1CCCCO[C@@H](CN(C)Cc2ccc(C(F)(F)F)cc2)[C@H](C)CN([C@H](C)CO)C(=O)c2cc(NS(=O)(=O)c3ccc(Cl)cc3)ccc2O1
AC50 [26]: 8.48 µM (active)

CCNC(=O)C(=O)N/N=C/c1cc([N+](=O)[O-])ccc1O
IC50 [5]: 2.44 µM (active)

C=CC[C@H](CC(=O)N(CCO)Cc1ccccc1)C(=O)N[C@@H](COC(=O)[C@H](CC=C)CC(=O)OC(C)(C)C)Cc1c[nH]c2ccccc12
AC50 [26]: 15.9 µM (active)

O=S1(=O)N=C(N/N=C/c2ccccn2)c2ccccc21
IC50 [5]: 3.27 µM (active)

O=C(Cc1ccc(Cl)cc1)Nc1ccc(N2CCN(C(=O)c3ccco3)CC2)cc1
AC50 [15]: > 70 µM (inactive) | AC50 [16]: > 70 µM (inactive) | AC50 [17]: 6.62 µM (active)

CCOC(=O)C1=NN(c2ccccc2)C(=O)/C1=C\c1ccc(N(C)C)cc1
IC50 [5]: > 100 µM (active)

O=C(Cn1cncn1)N/N=C/c1ccccc1O
IC50 [5]: 22.1 µM (active)

CNc1nc(Cl)nc(NC(C)(C)C)n1
EC50 [27]: > 120 µM (not active) | AC50 [9]: inconclusive | EC50 [28]: > 120 µM (not active) | EC50 [29]: 12.7 µM (active)

CCNc1ncc2nc(-c3cn(C)c4ccccc34)c(=O)n(-c3ccccc3)c2n1
AC50 [9]: inconclusive | AC50 [10]: 25.1 µM (inconclusive) | AC50 [11]: 15.8 µM (inconclusive) | AC50 [19]: 6.31 µM (inconclusive)

C=CS(=O)(=O)c1sc(Cl)c(N2CCOCC2)c1[N+](=O)[O-]
AC50 [15]: 1.31 µM (active) | IC50 [24]: 11 µM (active) | EC50 [30]: 7.27 µM (active) | AC50 [17]: 13.3 µM (active) | EC50 [31]: 5.42 µM (active)

COc1ccc(C2/C=C\CN(S(=O)(=O)c3ccc(C)cc3)[C@H](Cc3ccccc3)C(=O)N2Cc2ccc(F)cc2)cc1 (stereo partly drawn)
AC50 [15]: 12.9 µM (active) | AC50 [16]: > 70 µM (inactive) | AC50 [17]: 25.5 µM (active)

O=C1NC(=O)C(=Cc2ccc3ccccc3c2)C(=O)N1
IC50 [24]: 50.8 µM (active)

CCC(=O)c1ccc(OCC(=O)Nc2ccccc2N2CCCCC2)cc1
EC50 [20]: > 150 µM (not active) | EC50 [21]: > 150 µM (not active) | EC50 [22]: 35.6 µM (active) | EC50 [23]: > 150 µM (not active)

CCCCCc1cc(=O)oc2c(C(CCN(CC)CC)c3ccc(N(C)C)cc3)c(OC)cc(OC)c12 (stereo not drawn)
IC50 [5]: 9.17 µM (active)
